Experimental data from PubChem BioAssay AID1963866 (Molecular Pharmacology Branch, DTP, NCI, 2024).

Tested on: PDC KRAS tumor spheroids with HUVEC/MSC, viability
Assay: Anticancer human tumor 349418-098-R-PDC patient-derived lung adenocarcinoma cell line growth inhibition [KRAS2]
Conditions: for IC50: curve of first compound; for viability, T/C: stronger effect = lower value
Procedure, shortened: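 KRAS-mutant tumor cells were grown as spheroids with HUVEC endothelial cells and human MSCs as stroma. Targeted agents were tested alone and with KRAS pathway inhibitors. Doses started at or near clinical Cmax, or 10 microM, descending half-log.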

[1] = second compound 0.0316 µM, first compound 0.0316 µM
[2] = second compound 0.1 µM, first compound 0.0316 µM
[3] = second compound 0.1 µM, first compound 0.1 µM
[4] = second compound 0.1 µM, first compound 0.316 µM
[5] = second compound 0.1 µM, first compound 1 µM
[6] = second compound 0.1 µM, first compound 3.16 µM
[7] = second compound 0.1 µM, first compound 10 µM
[8] = second compound 0.316 µM, first compound 0.0316 µM
[9] = second compound 0.316 µM, first compound 0.1 µM
[10] = second compound 0.316 µM, first compound 0.316 µM
[11] = second compound 0.316 µM, first compound 1 µM
[12] = second compound 0.316 µM, first compound 3.16 µM
[13] = second compound 0.316 µM, first compound 10 µM
[14] = second compound 1 µM, first compound 0.0316 µM
[15] = second compound 1 µM, first compound 0.1 µM
[16] = second compound 1 µM, first compound 0.316 µM
[17] = second compound 1 µM, first compound 1 µM
[18] = second compound 1 µM, first compound 3.16 µM
[19] = second compound 1 µM, first compound 10 µM
[20] = second compound 3.16 µM, first compound 0.0316 µM
[21] = second compound 3.16 µM, first compound 0.1 µM
[22] = second compound 3.16 µM, first compound 0.316 µM
[23] = second compound 3.16 µM, first compound 1 µM
[24] = second compound 3.16 µM, first compound 3.16 µM
[25] = second compound 3.16 µM, first compound 10 µM
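Also: spheroids exposed to compounds for seven days before readout.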

## CC(C)NCC(C(=O)N1CCN(c2ncnc3c2C(C)CC3O)CC1)c1ccc(Cl)cc1 (stereo not given) + C=CC(=O)N1CCN(c2nc(OCC3CCCN3C)nc3c2CCN(c2cccc4cccc(C)c24)C3)CC1CC#N
Second compound 0.0316 µM
  IC50: 313 nM
Second compound 0.1 µM
  IC50: 254 nM
Second compound 0.316 µM
  IC50: 289 nM
Second compound 1 µM
  IC50: 224 nM
Second compound 3.16 µM
  IC50: < 31.6 nM
[1]
  viability, T/C: 95.7%
Second compound 0.0316 µM, first compound 0.1 µM
  viability, T/C: 69.4%
Second compound 0.0316 µM, first compound 0.316 µM
  viability, T/C: 52.3%
Second compound 0.0316 µM, first compound 1 µM
  viability, T/C: 30.7%
Second compound 0.0316 µM, first compound 3.16 µM
  viability, T/C: 16.9%
Second compound 0.0316 µM, first compound 10 µM
  viability, T/C: 6.91%
[2]
  viability, T/C: 90.8%
[3]
  viability, T/C: 76.8%
[4]
  viability, T/C: 42.5%
[5]
  viability, T/C: 20.9%
[6]
  viability, T/C: 15.2%
[7]
  viability, T/C: 7.07%
[8]
  viability, T/C: 87.7%
[9]
  viability, T/C: 77.9%
[10]
  viability, T/C: 44.7%
[11]
  viability, T/C: 24.6%
[12]
  viability, T/C: 15.7%
[13]
  viability, T/C: 5.1%
[14]
  viability, T/C: 79.9%
[15]
  viability, T/C: 66.1%
[16]
  viability, T/C: 43.7%
[17]
  viability, T/C: 19%
[18]
  viability, T/C: 8.97%
[19]
  viability, T/C: 4.67%
[20]
  viability, T/C: 0.14%
[21]
  viability, T/C: 0.14%
[22]
  viability, T/C: 0.1%
[23]
  viability, T/C: 0.23%
[24]
  viability, T/C: 0.21%
[25]
  viability, T/C: 0.13%

## CC1(C)CCC(CN2CCN(c3ccc(C(=O)NS(=O)(=O)c4ccc(NCC5CCOCC5)c([N+](=O)[O-])c4)c(Oc4cnc5[nH]ccc5c4)c3)CC2)=C(c2ccc(Cl)cc2)C1 + C=CC(=O)N1CCN(c2nc(=O)n(-c3c(C)ccnc3C(C)C)c3nc(-c4c(O)cccc4F)c(F)cc23)C(C)C1
Second compound 0.1 µM
  IC50: 1740 nM
Second compound 0.316 µM
  IC50: 1760 nM
Second compound 1 µM
  IC50: 1160 nM
Second compound 3.16 µM
  IC50: 538 nM
Second compound 10 µM
  IC50: < 31.6 nM
[2]
  viability, T/C: 99.6%
[3]
  viability, T/C: 91.4%
[4]
  viability, T/C: 91.7%
[5]
  viability, T/C: 85.1%
[6]
  viability, T/C: 12.4%
[7]
  viability, T/C: 3.05%
[8]
  viability, T/C: 92.5%
[9]
  viability, T/C: 92.2%
[10]
  viability, T/C: 82.6%
[11]
  viability, T/C: 78.7%
[12]
  viability, T/C: 20.4%
[13]
  viability, T/C: 3.58%
[14]
  viability, T/C: 78.4%
[15]
  viability, T/C: 80.5%
[16]
  viability, T/C: 75.4%
[17]
  viability, T/C: 55.6%
[18]
  viability, T/C: 12.9%
[19]
  viability, T/C: 2.8%
[20]
  viability, T/C: 59.6%
[21]
  viability, T/C: 58.2%
[22]
  viability, T/C: 52.6%
[23]
  viability, T/C: 44.2%
[24]
  viability, T/C: 13.1%
[25]
  viability, T/C: 3.37%
Second compound 10 µM, first compound 0.0316 µM
  viability, T/C: 32.7%
Second compound 10 µM, first compound 0.1 µM
  viability, T/C: 33.7%
Second compound 10 µM, first compound 0.316 µM
  viability, T/C: 31.9%
Second compound 10 µM, first compound 1 µM
  viability, T/C: 32.5%
Second compound 10 µM, first compound 3.16 µM
  viability, T/C: 6.8%
Second compound 10 µM, first compound 10 µM
  viability, T/C: 5.41%

## CC(=O)Nc1cccc(-n2c(=O)n(C3CC3)c(=O)c3c(Nc4ccc(I)cc4F)n(C)c(=O)c(C)c32)c1 + C=CC(=O)N1CCN(c2nc(OCC3CCCN3C)nc3c2CCN(c2cccc4cccc(C)c24)C3)CC1CC#N
Second compound 0.0316 µM
  IC50: < 0.1 nM
Second compound 0.1 µM
  IC50: < 0.1 nM
Second compound 0.316 µM
  IC50: < 0.1 nM
Second compound 1 µM
  IC50: < 0.1 nM
Second compound 3.16 µM
  IC50: < 0.1 nM
Second compound 0.0316 µM, first compound 0.0001 µM
  viability, T/C: 41.1%
Second compound 0.0316 µM, first compound 0.000316 µM
  viability, T/C: 20.2%
Second compound 0.0316 µM, first compound 0.001 µM
  viability, T/C: 14.8%
Second compound 0.0316 µM, first compound 0.00316 µM
  viability, T/C: 12.2%
Second compound 0.0316 µM, first compound 0.01 µM
  viability, T/C: 8.59%
[1]
  viability, T/C: 6.57%
Second compound 0.1 µM, first compound 0.0001 µM
  viability, T/C: 34.7%
Second compound 0.1 µM, first compound 0.000316 µM
  viability, T/C: 20.9%
Second compound 0.1 µM, first compound 0.001 µM
  viability, T/C: 16.1%
Second compound 0.1 µM, first compound 0.00316 µM
  viability, T/C: 10.9%
Second compound 0.1 µM, first compound 0.01 µM
  viability, T/C: 9.4%
[2]
  viability, T/C: 6.86%
Second compound 0.316 µM, first compound 0.0001 µM
  viability, T/C: 35.8%
Second compound 0.316 µM, first compound 0.000316 µM
  viability, T/C: 21.8%
Second compound 0.316 µM, first compound 0.001 µM
  viability, T/C: 16.8%
Second compound 0.316 µM, first compound 0.00316 µM
  viability, T/C: 12.6%
Second compound 0.316 µM, first compound 0.01 µM
  viability, T/C: 8.68%
[8]
  viability, T/C: 6.94%
Second compound 1 µM, first compound 0.0001 µM
  viability, T/C: 30.4%
Second compound 1 µM, first compound 0.000316 µM
  viability, T/C: 23.3%
Second compound 1 µM, first compound 0.001 µM
  viability, T/C: 13.3%
Second compound 1 µM, first compound 0.00316 µM
  viability, T/C: 9.39%
Second compound 1 µM, first compound 0.01 µM
  viability, T/C: 7.58%
[14]
  viability, T/C: 6.58%
Second compound 3.16 µM, first compound 0.0001 µM
  viability, T/C: 0.51%
Second compound 3.16 µM, first compound 0.000316 µM
  viability, T/C: 0.21%
Second compound 3.16 µM, first compound 0.001 µM
  viability, T/C: 0.19%
Second compound 3.16 µM, first compound 0.00316 µM
  viability, T/C: 0.46%
Second compound 3.16 µM, first compound 0.01 µM
  viability, T/C: 0.21%
[20]
  viability, T/C: 0.34%
